How the values were obtained:
NPR-B = molecular target: T1, NPR-B (Homo sapiens, UniProt P20594); assay: NPR-B induced production of cyclic GMP in GTM-3 cells; type: cell-based; conditions: EC50, cyclic GMP production, GTM-3 cells, FIG. 2, 4-Parameter Logistic Equation
T1 construct: a functional assay using endogenously NPR-B expressing GTM-3 cells; endogenous in cells; host or cells: GTM-3 (transformed human trabecular meshwork cells)
T1 sequence (P20594 23-1047): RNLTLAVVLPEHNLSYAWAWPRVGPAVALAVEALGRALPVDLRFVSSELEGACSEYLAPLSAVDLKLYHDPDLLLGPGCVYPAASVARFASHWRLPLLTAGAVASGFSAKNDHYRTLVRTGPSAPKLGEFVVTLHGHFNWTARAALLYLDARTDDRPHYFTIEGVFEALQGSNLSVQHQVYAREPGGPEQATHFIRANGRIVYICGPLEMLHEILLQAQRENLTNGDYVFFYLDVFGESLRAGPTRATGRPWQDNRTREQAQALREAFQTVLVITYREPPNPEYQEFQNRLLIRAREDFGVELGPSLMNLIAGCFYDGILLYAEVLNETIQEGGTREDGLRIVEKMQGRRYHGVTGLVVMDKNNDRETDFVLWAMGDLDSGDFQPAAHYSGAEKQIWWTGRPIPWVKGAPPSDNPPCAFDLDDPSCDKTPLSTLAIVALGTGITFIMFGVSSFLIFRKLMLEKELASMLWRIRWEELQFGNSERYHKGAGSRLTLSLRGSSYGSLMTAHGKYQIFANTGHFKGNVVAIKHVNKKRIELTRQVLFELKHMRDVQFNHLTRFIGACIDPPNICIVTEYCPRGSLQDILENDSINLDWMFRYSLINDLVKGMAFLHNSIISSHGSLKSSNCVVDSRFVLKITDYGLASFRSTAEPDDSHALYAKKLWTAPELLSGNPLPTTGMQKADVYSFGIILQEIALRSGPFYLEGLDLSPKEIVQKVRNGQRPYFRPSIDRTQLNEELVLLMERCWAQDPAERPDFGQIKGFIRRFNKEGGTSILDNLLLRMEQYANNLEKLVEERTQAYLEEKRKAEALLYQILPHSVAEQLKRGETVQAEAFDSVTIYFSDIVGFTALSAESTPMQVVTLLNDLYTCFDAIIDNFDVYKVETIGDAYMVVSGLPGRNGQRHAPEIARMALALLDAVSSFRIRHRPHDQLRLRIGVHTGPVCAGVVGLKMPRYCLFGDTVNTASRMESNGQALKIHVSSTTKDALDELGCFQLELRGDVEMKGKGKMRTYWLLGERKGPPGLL
How it was run: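 GTM-3 cells with endogenous NPR-B were washed and preincubated 15 min at room temperature in medium with 1 mM IBMX. Compounds were tested at final 45 μM to 20 nM; dose-dependent cGMP production gave Emax and EC50.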

[1] = test system: small-cell lung cancer cells; conditions: 100 nM; cited from earlier work
AtT-20 cells = conditions: cited from earlier work
NPR-A = NPR-A (Rattus norvegicus, UniProt P18910); assay: cell-based
Method: In this homogenous assay, the cells are stimulated in suspension with the test compound and the production of cyclic GMP (cGMP) is determined, from which EC50 values are calculated.
Detached cells are harvested in 20 ml PBS and centrifuged for 10 min at 200×g at room temperature.
20 μl of cells (2.5×10^3 cells) are added to each well of a 96 well white optical bottom tissue culture plate (Nunc, Germany). 10 μl of compound dilution is added and the cells are stimulated for 25 min. at room temperature. The stimulation is stopped by addition of 20 μl of Lysis buffer (reagent included in cGMP Assay Kit).
Determination of cGMP: The amount of produced cGMP in the cells is determined using HitHunter™ cGMP Assay kit (DiscoveRX) according to manufacturer's instructions.
Dilutions are prepared in Medium supplemented with IBMX (1 mM).

chondrocytes = conditions: low doses 10 to 100 pM, at the highest dose; cited from earlier work
[2] = test system: human renal carcinoma cells; conditions: 100 μM; cited from earlier work

Sequence of NPR-A (P18910 29-1057): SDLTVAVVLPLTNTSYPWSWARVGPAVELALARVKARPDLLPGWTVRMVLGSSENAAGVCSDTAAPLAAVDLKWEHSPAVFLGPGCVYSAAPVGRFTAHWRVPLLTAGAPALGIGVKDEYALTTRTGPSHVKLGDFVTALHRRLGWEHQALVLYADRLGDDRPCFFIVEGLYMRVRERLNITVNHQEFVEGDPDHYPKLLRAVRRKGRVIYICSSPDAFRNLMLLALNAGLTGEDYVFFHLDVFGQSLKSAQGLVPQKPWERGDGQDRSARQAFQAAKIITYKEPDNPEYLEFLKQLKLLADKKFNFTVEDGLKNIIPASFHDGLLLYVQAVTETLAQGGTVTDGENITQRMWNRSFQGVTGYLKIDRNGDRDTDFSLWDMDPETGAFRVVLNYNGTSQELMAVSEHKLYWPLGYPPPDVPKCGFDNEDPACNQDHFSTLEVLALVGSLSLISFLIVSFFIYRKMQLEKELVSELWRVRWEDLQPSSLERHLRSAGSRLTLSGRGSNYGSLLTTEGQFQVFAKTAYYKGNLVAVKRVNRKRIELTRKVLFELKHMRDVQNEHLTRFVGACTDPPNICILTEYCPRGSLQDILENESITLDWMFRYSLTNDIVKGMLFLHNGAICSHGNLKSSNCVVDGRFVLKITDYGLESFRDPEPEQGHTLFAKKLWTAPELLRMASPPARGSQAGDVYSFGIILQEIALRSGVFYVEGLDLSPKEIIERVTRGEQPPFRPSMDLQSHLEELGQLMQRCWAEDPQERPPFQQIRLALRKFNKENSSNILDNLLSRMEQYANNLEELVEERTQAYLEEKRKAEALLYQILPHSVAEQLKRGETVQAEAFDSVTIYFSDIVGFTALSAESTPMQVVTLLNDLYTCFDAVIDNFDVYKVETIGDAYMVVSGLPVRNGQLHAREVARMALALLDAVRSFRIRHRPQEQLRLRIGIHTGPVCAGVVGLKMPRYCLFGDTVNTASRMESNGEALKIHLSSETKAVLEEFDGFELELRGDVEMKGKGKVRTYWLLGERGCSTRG

In the case of `CC[C@H](C)[C@@H]1NC(=O)[C@H](CCCNC(=N)N)NC(=O)[C@H](CC(=O)O)NC(=O)[C@H](CC(C)C)NC(=O)[C@H](CCCCN)NC(=O)[C@H](CC(C)C)NC(=O)CNC(=O)[C@H](Cc2ccccc2)NC(=O)[C@@H](NC(=O)CNC(=O)[C@H](CCCCN)NC(=O)[C@H](CO)NC(=O)[C@H](CC(C)C)NC(=O)CN)CSSC[C@@H](C(=O)O)NC(=O)CNC(=O)[C@H](CC(C)C)NC(=O)CNC(=O)[C@H](CO)NC(=O)[C@H](CCSC)NC(=O)[C@H](CO)NC(=O)CNC1=O` [CNP, C-type natriuretic peptide], the EC50 (NPR-B) is given as 38.8 nM, the “decrease in the number of cells” value [1] is given as 39% and the “stimulation of cGMP production” value (AtT-20 cells) is given as “up to 200 fold”. The EC50 (NPR-A) was 1600 nM, the “increase in cellularity (chondrocyte proliferation)” value (chondrocytes) was “up to 43%” and the “decrease in cell number” value [2] was 10%.

— patent US9458198B1, “Cyclic peptide-based NPR-B agonists” (priority 2009, dated 2016)
